Measurements: article PMC7407272, “Induction of Lysosome Membrane Permeabilization as a Therapeutic Strategy to Target Pancreatic Cancer Stem Cells” (Cancers, 2020)

What was measured:
Experiment in all cases: KINOMEscan
[1] = biological target: T1, EGFR(S752-I759del) (Homo sapiens, UniProt P00533, DEL752-759); type: binding; conditions: read-out: % Ctrl
T1 construct: purchased DiscoveRx KINOMEscan

[2] = biological target: T2, SGK (Homo sapiens, UniProt O00141); type: binding; conditions: read-out: % Ctrl
T2 construct: purchased DiscoveRx KINOMEscan
T2 sequence (O00141 whole entry): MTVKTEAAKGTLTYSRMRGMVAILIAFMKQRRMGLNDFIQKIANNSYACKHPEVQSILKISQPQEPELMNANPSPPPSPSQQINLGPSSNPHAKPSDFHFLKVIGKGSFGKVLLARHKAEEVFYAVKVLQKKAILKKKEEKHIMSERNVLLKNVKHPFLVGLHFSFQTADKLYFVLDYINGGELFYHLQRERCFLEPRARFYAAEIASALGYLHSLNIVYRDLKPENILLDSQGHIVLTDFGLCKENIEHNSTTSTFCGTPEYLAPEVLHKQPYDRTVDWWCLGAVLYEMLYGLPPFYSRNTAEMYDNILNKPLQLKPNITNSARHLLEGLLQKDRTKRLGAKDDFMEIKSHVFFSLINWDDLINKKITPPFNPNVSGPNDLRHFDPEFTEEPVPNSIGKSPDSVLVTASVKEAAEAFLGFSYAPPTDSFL

[3] = biological target: T3, ALK(C1156Y) (Homo sapiens, UniProt Q9UM73, C1156Y); type: binding; conditions: read-out: % Ctrl
T3 construct: purchased DiscoveRx KINOMEscan
T3 sequence (Q9UM73 19-1620 C1156Y): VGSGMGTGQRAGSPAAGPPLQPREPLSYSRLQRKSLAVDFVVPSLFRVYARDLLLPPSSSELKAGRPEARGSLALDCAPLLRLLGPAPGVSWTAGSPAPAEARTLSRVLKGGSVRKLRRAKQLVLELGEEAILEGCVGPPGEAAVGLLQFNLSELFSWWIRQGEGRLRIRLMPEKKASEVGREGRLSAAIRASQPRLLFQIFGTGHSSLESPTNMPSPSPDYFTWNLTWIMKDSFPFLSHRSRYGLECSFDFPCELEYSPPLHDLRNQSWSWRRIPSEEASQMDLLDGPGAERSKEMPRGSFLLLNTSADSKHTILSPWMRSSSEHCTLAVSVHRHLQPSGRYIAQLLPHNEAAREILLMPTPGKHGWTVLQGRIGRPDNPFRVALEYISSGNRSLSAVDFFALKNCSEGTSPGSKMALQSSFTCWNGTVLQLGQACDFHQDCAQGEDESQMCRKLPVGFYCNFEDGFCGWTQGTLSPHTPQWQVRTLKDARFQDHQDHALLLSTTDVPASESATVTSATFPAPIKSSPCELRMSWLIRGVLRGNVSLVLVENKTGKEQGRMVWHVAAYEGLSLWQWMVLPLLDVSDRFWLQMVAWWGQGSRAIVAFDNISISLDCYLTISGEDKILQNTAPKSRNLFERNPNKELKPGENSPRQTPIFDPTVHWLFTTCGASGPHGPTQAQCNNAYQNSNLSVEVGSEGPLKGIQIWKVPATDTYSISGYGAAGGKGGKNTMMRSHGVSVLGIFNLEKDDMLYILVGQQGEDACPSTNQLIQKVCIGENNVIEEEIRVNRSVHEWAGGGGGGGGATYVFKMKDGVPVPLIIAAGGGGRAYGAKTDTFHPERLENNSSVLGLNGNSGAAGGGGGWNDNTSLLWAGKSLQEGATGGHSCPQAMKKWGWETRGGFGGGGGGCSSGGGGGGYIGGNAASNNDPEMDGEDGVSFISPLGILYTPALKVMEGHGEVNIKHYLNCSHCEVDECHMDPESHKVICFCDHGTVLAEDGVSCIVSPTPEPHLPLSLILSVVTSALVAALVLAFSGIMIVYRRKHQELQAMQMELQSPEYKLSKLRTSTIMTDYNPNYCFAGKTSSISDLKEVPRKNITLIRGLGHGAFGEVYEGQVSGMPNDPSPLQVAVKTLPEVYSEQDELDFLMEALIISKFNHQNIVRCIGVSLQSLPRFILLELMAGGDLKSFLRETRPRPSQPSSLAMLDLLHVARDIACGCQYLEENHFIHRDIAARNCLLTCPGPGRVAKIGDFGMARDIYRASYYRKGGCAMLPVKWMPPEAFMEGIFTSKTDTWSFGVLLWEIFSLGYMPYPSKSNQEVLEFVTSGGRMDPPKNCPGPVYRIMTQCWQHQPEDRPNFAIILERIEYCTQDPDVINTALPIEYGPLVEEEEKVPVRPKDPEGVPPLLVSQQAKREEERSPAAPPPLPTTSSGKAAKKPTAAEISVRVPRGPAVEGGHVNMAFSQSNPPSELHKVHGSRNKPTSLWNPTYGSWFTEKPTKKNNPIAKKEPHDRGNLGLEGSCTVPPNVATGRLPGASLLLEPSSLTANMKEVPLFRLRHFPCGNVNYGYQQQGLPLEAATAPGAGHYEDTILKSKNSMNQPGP

[4] = biological target: T4, WNK3 (Homo sapiens, UniProt Q9BYP7); type: binding; conditions: read-out: % Ctrl
T4 construct: purchased DiscoveRx KINOMEscan

[5] = biological target: T5, FGFR2 (Homo sapiens, UniProt P21802); type: binding; conditions: read-out: % Ctrl
T5 construct: purchased DiscoveRx KINOMEscan

[6] = biological target: T6, CDK3 (Homo sapiens, UniProt Q00526); type: binding; conditions: read-out: % Ctrl
T6 construct: purchased DiscoveRx KINOMEscan

[7] = biological target: T7, PIK3CA(E542K) (Homo sapiens, UniProt P42336, E542K); type: binding; conditions: read-out: % Ctrl
T7 construct: purchased DiscoveRx KINOMEscan

[8] = biological target: T8, AXL (Homo sapiens, UniProt P30530); type: binding; conditions: read-out: % Ctrl
T8 construct: purchased DiscoveRx KINOMEscan

[9] = biological target: T9, CSNK2A2 (Homo sapiens, UniProt P19784); type: binding; conditions: read-out: % Ctrl
T9 construct: purchased DiscoveRx KINOMEscan

[10] = biological target: T10, CAMK1 (Homo sapiens, UniProt Q14012); type: binding; conditions: read-out: % Ctrl
T10 construct: purchased DiscoveRx KINOMEscan

[11] = biological target: T11, TAOK1 (Homo sapiens, UniProt Q7L7X3); type: binding; conditions: read-out: % Ctrl
T11 construct: purchased DiscoveRx KINOMEscan

[12] = biological target: T12, ASK1 (Homo sapiens, UniProt Q99683); type: binding; conditions: read-out: % Ctrl
T12 construct: purchased DiscoveRx KINOMEscan

[13] = biological target: T13, ITK (Homo sapiens, UniProt Q08881); type: binding; conditions: read-out: % Ctrl
T13 construct: purchased DiscoveRx KINOMEscan

[14] = biological target: T14, ABL1-P (Homo sapiens, UniProt P00519); type: binding; conditions: read-out: % Ctrl
T14 construct: purchased DiscoveRx KINOMEscan

[15] = biological target: T15, FES (Homo sapiens, UniProt P07332); type: binding; conditions: read-out: % Ctrl
T15 construct: purchased DiscoveRx KINOMEscan
T15 sequence (P07332 whole entry): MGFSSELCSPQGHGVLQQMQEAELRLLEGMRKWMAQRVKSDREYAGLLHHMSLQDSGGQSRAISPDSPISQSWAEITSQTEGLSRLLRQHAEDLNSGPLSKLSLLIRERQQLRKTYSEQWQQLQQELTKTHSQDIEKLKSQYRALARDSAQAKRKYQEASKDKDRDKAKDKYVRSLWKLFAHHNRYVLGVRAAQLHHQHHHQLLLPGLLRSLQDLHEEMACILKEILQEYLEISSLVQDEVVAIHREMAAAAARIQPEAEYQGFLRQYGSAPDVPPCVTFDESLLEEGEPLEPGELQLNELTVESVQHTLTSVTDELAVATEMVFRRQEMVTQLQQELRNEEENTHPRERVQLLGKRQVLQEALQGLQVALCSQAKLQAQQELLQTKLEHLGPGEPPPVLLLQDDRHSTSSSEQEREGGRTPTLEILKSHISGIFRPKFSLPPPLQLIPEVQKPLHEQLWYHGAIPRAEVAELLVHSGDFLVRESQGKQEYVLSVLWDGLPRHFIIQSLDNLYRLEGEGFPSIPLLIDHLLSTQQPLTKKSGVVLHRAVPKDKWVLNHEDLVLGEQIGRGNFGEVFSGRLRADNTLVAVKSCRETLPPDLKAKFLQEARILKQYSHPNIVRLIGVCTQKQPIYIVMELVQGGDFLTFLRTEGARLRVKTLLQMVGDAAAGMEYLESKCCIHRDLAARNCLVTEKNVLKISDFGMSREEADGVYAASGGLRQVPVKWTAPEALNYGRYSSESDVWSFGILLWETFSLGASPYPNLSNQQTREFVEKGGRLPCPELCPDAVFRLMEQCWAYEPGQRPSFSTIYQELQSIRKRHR

[16] = biological target: T16, AMPK-alpha1 (Homo sapiens, UniProt Q13131); type: binding; conditions: read-out: % Ctrl
T16 construct: purchased DiscoveRx KINOMEscan

[17] = biological target: T17, AURKB (Homo sapiens, UniProt Q96GD4); type: binding; conditions: read-out: % Ctrl
T17 construct: purchased DiscoveRx KINOMEscan

[18] = biological target: T18, KIT (Homo sapiens, UniProt P10721); type: binding; conditions: read-out: % Ctrl
T18 construct: purchased DiscoveRx KINOMEscan

[19] = biological target: T19, ROCK2 (Homo sapiens, UniProt O75116); type: binding; conditions: read-out: % Ctrl
T19 construct: purchased DiscoveRx KINOMEscan

[20] = biological target: T20, CSNK1A1 (Homo sapiens, UniProt P48729); type: binding; conditions: read-out: % Ctrl
T20 construct: purchased DiscoveRx KINOMEscan

[21] = biological target: T21, p38-beta (Homo sapiens, UniProt Q15759); type: binding; conditions: read-out: % Ctrl
T21 construct: purchased DiscoveRx KINOMEscan

[22] = tested on: EGFR(L747-T751del,Sins); type: binding, human; conditions: 1 µM
[23] = biological target: T22, S6K1 (Homo sapiens, UniProt P23443); type: binding; conditions: read-out: % Ctrl
T22 construct: purchased DiscoveRx KINOMEscan
T22 sequence (P23443 whole entry): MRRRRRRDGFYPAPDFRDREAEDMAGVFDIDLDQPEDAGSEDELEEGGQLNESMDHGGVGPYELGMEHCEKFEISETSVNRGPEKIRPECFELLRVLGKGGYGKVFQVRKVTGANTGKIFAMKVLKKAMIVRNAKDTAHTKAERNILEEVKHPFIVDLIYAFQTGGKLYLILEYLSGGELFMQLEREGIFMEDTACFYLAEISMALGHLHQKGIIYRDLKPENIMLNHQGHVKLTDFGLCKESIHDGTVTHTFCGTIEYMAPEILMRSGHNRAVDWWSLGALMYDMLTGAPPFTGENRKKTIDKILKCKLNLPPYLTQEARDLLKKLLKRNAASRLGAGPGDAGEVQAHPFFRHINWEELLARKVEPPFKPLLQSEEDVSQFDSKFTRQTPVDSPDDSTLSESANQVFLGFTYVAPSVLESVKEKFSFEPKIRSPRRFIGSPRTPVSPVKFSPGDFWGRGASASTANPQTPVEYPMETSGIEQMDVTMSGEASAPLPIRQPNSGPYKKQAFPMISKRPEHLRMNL

[24] = biological target: T23, GSK3B (Homo sapiens, UniProt P49841); type: binding; conditions: read-out: % Ctrl
T23 construct: purchased DiscoveRx KINOMEscan

[25] = biological target: T24, ADCK3 (Homo sapiens, UniProt Q8NI60); type: binding; conditions: read-out: % Ctrl
T24 construct: purchased DiscoveRx KINOMEscan

[26] = biological target: T25, PAK1 (Homo sapiens, UniProt Q13153); type: binding; conditions: read-out: % Ctrl
T25 construct: purchased DiscoveRx KINOMEscan

[27] = biological target: T26, MRCKB (Homo sapiens, UniProt Q9Y5S2); type: binding; conditions: read-out: % Ctrl
T26 construct: purchased DiscoveRx KINOMEscan

[28] = biological target: T27, MKK7 (Homo sapiens, UniProt O14733); type: binding; conditions: read-out: % Ctrl
T27 construct: purchased DiscoveRx KINOMEscan
T27 sequence (O14733 whole entry): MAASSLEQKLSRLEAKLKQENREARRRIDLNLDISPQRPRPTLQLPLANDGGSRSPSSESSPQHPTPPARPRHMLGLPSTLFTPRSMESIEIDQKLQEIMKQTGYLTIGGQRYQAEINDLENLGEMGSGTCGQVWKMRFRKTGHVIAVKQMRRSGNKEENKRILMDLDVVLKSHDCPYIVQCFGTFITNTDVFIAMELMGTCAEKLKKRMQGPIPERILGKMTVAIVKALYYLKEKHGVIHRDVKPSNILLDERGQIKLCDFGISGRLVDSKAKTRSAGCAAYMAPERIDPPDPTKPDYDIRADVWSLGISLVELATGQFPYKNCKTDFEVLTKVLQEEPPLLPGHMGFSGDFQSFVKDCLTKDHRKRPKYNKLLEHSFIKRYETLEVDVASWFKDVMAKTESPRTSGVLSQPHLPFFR

[29] = biological target: T28, ACVR1B (Homo sapiens, UniProt P36896); type: binding; conditions: read-out: % Ctrl
T28 construct: purchased DiscoveRx KINOMEscan

[30] = biological target: T29, KIT(V559D,T670I) (Homo sapiens, UniProt P10721, T670I/V559D); type: binding; conditions: read-out: % Ctrl
T29 construct: purchased DiscoveRx KINOMEscan

[31] = biological target: T30, RET(V804L) (Homo sapiens, UniProt P07949, V804L); type: binding; conditions: read-out: % Ctrl
T30 construct: purchased DiscoveRx KINOMEscan

[32] = biological target: T31, LATS2 (Homo sapiens, UniProt Q9NRM7); type: binding; conditions: read-out: % Ctrl
T31 construct: purchased DiscoveRx KINOMEscan

[33] = biological target: T32, MARK4 (Homo sapiens, UniProt Q96L34); type: binding; conditions: read-out: % Ctrl
T32 construct: purchased DiscoveRx KINOMEscan

[34] = biological target: T33, MYO3A (Homo sapiens, UniProt Q8NEV4); type: binding; conditions: read-out: % Ctrl
T33 construct: purchased DiscoveRx KINOMEscan

[35] = biological target: T34, EGFR(T790M) (Homo sapiens, UniProt P00533, T790M); type: binding; conditions: read-out: % Ctrl
T34 construct: purchased DiscoveRx KINOMEscan

[36] = biological target: T35, AAK1 (Homo sapiens, UniProt Q2M2I8); type: binding; conditions: read-out: % Ctrl
T35 construct: purchased DiscoveRx KINOMEscan

[37] = biological target: T36, GRK7 (Homo sapiens, UniProt Q8WTQ7); type: binding; conditions: read-out: % Ctrl
T36 construct: purchased DiscoveRx KINOMEscan

[38] = biological target: T37, NEK11 (Homo sapiens, UniProt Q8NG66); type: binding; conditions: read-out: % Ctrl
T37 construct: purchased DiscoveRx KINOMEscan

[39] = biological target: T38, PRKCH (Homo sapiens, UniProt P24723); type: binding; conditions: read-out: % Ctrl
T38 construct: purchased DiscoveRx KINOMEscan

[40] = biological target: T39, EGFR (Homo sapiens, UniProt P00533); type: binding; conditions: read-out: % Ctrl
T39 construct: purchased DiscoveRx KINOMEscan
T39 sequence (P00533 25-1210): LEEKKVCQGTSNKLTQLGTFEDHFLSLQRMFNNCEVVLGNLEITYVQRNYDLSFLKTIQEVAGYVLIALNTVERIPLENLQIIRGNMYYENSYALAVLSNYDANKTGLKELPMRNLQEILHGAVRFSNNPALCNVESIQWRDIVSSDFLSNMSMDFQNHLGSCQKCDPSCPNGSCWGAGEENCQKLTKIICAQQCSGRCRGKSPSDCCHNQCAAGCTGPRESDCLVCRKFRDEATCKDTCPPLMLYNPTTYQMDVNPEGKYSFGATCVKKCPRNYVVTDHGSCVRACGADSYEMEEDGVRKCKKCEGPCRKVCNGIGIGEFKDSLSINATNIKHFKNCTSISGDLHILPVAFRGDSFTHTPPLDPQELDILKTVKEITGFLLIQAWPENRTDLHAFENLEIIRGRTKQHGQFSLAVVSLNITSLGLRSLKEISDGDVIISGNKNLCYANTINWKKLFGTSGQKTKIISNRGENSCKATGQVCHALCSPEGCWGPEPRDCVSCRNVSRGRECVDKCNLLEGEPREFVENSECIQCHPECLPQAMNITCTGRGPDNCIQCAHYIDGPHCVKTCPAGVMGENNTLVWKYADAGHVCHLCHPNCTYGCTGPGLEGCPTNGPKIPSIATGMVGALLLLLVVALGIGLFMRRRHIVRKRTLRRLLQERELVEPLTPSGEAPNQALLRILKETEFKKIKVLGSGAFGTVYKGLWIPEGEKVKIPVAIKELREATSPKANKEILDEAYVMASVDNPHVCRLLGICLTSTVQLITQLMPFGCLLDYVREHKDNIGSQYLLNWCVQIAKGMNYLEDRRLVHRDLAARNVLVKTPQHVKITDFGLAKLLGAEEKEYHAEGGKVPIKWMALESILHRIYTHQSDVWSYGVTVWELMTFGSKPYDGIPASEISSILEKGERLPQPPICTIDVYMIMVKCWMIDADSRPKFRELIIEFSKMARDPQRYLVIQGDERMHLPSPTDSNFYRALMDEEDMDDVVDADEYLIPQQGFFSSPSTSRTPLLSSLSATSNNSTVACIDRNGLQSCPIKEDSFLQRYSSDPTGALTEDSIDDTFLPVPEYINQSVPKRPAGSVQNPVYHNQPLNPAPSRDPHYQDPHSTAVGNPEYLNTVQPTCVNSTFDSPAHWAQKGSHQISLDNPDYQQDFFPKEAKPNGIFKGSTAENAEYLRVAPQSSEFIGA

## CN1CCC(CNc2ccc3ncc(C(=O)Nc4cccc(OC(F)(F)F)c4)n3n2)CC1 [Cpd 2]
[1]
  remaining binding at 1 µM: 97%
[2]
  remaining binding at 1 µM: 85%
[3]
  remaining binding at 1 µM: 85%
[4]
  remaining binding at 1 µM: 99%
[5]
  remaining binding at 1 µM: 100%
[6]
  remaining binding at 1 µM: 85%
[7]
  remaining binding at 1 µM: 92%
[8]
  remaining binding at 1 µM: 65%
[9]
  remaining binding at 1 µM: 39%
[10]
  remaining binding at 1 µM: 98%
[11]
  remaining binding at 1 µM: 82%
[12]
  remaining binding at 1 µM: 100%
[13]
  remaining binding at 1 µM: 95%
[14]
  remaining binding at 1 µM: 95%
[15]
  remaining binding at 1 µM: 87%
[16]
  remaining binding at 1 µM: 100%
[17]
  remaining binding at 1 µM: 97%
[18]
  remaining binding at 1 µM: 99%
[19]
  remaining binding at 1 µM: 94%
[20]
  remaining binding at 1 µM: 100%
[21]
  remaining binding at 1 µM: 100%
[22]
  % Ctrl: 87%
[23]
  remaining binding at 1 µM: 93%
[24]
  remaining binding at 1 µM: 97%
[25]
  remaining binding at 1 µM: 100%
[26]
  remaining binding at 1 µM: 100%
[27]
  remaining binding at 1 µM: 100%
[28]
  remaining binding at 1 µM: 100%
[29]
  remaining binding at 1 µM: 97%
[30]
  remaining binding at 1 µM: 100%
[31]
  remaining binding at 1 µM: 100%
[32]
  remaining binding at 1 µM: 99%
[33]
  remaining binding at 1 µM: 100%
[34]
  remaining binding at 1 µM: 91%
[35]
  remaining binding at 1 µM: 96%
[36]
  remaining binding at 1 µM: 89%
[37]
  remaining binding at 1 µM: 41%
[38]
  remaining binding at 1 µM: 79%
[39]
  remaining binding at 1 µM: 99%
[40]
  remaining binding at 1 µM: 94%
